The text below walks through data of patent US9670227B2, “Thienopyrimidine derivatives, a process for their preparation and pharmaceutical compositions containing them” (LES LABORATOIRES SERVIER, priority 2013, dated 2017).

In one experiment the target is Mcl-1 protein (UniProtKB primary accession number: Q07820) (Homo sapiens, UniProt Q07820). Nature of the experiment: Inhibition of Mcl-1 by fluorescence polarisation, Method 1. In kind it is binding. Conditions: read-out: IC50 (M) Mcl-1 FP. The method, boiled down:
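Compounds were tested as 11-point serial dilutions at 5% final DMSO against 5 nM Mcl-1 with 1 nM fluorescein-labelled ligand in 10 mM HEPES, 150 mM NaCl, 0.05% Tween 20, pH 7.4. Relative binding potency was read by fluorescence polarisation.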
In general terms: Polarisation of emitted light reports the rotation of a fluorescent probe.

Experiment [1] has as its system H929 multiple myeloma tumour line. Nature of the experiment: In vitro cytotoxicity, Microculture Tetrazolium Assay. Format: cell-based. As to the method: The cytotoxicity studies were carried out on the H929 multiple myeloma tumour line.
The cells are distributed onto microplates and exposed to the test compounds for 48 hours.

Where [2] appears, read: fluorescence polarisation test, Method 2 values are underlined in the patent (underlining not visible here).
Where [3] appears, read: Homo sapiens, NCI-H929, 48 h, H929 cells, 48 hours exposure, MTT, read-out: IC50 (μM) MTT H929.
The mark [4] stands for this setting: fluorescence polarisation, Method 1, or Method 2.
Where [5] appears, read: H929 cells, 48 hours exposure, MTT, read-out: IC50 (μM) MTT H929.

Like-named read-outs stand apart in the source and are kept apart here.

Sequence of Mcl-1 protein (Q07820 whole entry): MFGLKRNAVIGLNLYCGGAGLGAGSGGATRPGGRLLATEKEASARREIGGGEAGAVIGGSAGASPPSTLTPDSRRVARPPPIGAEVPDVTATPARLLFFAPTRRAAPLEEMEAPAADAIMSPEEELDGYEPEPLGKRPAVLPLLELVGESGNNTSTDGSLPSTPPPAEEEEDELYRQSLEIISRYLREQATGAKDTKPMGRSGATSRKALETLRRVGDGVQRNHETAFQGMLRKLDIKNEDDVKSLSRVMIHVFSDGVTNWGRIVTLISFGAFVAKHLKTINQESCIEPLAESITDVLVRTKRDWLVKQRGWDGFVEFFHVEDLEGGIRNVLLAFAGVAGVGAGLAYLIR

In general, IC50 refers to the concentration that gives 50% inhibition. For the compound `COc1cc(-c2sc3ncnc(OC(Cc4ccccc4OCc4ccccn4)C(=O)O)c3c2-c2ccc(OCCN3CCN(C)CC3)c(Cl)c2C)ccc1F` [Example 381, (2R)-2-{[(5Sa)-5-{3-chloro-2-methyl-4-[2-(4-methylpiperazin-1-yl)ethoxy]phenyl}-6-(4-fluoro-3-methoxyphenyl)thieno[2,3-d]pyrimidin-4-yl]oxy}-3-[2-(pyridin-2-ylmethoxy)phenyl]propanoic acid], the 50% inhibitory concentration (IC50) at Mcl-1 protein (setting [2]) amounted to 1.3e-08 M; in experiment [1] (setting [3]), 0.119 µM.
Taken in the same sequence, the figures for `CCc1sc2ncnc(OC(Cc3ccccc3)C(=O)O)c2c1-c1ccc(OCC(=O)N(C)C)c(Cl)c1C` [Example 390, (2R)-2-[((5Sa)-5-{3-chloro-4-[2-(dimethylamino)-2-oxoethoxy]-2-methylphenyl}-6-ethylthieno[2,3-d]pyrimidin-4-yl)oxy]-3-phenylpropanoic acid] were 4e-08 M and 20 µM.
Consider `Cc1c(-c2c(-c3ccc(F)cc3)sc3ncnc(OC(Cc4ccccc4OCc4ccnc(C(C)(C)C)n4)C(=O)O)c23)ccc(OCCN2CCN(C)CC2)c1Cl` [Example 23, (2R)-3-{2-[(2-tert-butylpyrimidin-4-yl)methoxy]phenyl}-2-{[(5Sa)-5-{3-chloro-2-methyl-4-[2-(4-methylpiperazin-1-yl)ethoxy]phenyl}-6-(4-fluorophenyl)thieno[2,3-d]pyrimidin-4-yl]oxy}propanoic acid], for which the IC50 at Mcl-1 protein (setting [2]) was found to be 2.4e-08 M; in experiment [1] (setting [3]), 0.054 µM.
Turning to `CCc1sc2ncnc(O[C@H](Cc3ccccc3)C(=O)O)c2c1-c1ccc(OCCN(C)CCO)c(Cl)c1C` [Example 411, (2R)-2-{[(5Sa)-5-(3-chloro-4-{2-[(2-hydroxyethyl)(methyl)amino]ethoxy}-2-methylphenyl)-6-ethylthieno[2,3-d]pyrimidin-4-yl]oxy}-3-phenylpropanoic acid], the IC50 on Mcl-1 protein (setting [4]) amounted to 3.4e-08 M; in experiment [1] (setting [5]) it was 19 µM.
Consider `COc1cc(F)ccc1CC(Oc1ncnc2sc(-c3ccc(F)o3)c(-c3ccc(OCCN4CCN(C)CC4)c(Cl)c3C)c12)C(=O)O` [Example 692, (2R)-2-{[(5Sa)-5-{3-chloro-2-methyl-4-[2-(4-methylpiperazin-1-yl)ethoxy]phenyl}-6-(5-fluorofuran-2-yl)thieno[2,3-d]pyrimidin-4-yl]oxy}-3-(4-fluoro-2-methoxyphenyl)propanoic acid], for which the figures for the IC50 (on Mcl-1 protein (setting [4]); in experiment [1] (setting [3])) were 1e-08 M and 0.079 µM, respectively.
With `COc1ccccc1C[C@@H](Oc1ncnc2sc(-c3ccc(F)cc3)c(-c3cc(F)c(OCCN4CCN(C)CC4)c(Cl)c3C)c12)C(=O)O` (single isomer, unassigned) [Example 664], the half-maximal inhibitory concentration (IC50) on Mcl-1 protein (setting [4]) was found to be 3.86e-08 M; in experiment [1] (Homo sapiens, NCI-H929, 48 h, read-out: IC50 (μM) MTT H929, H929 cells, 48 hours exposure, MTT) it was 2.08 µM.
Take `CCCCCn1nccc1C(C)Oc1ccccc1CC(Oc1ncnc2sc(-c3ccc(F)cc3)c(-c3ccc(OCCN4CCN(C)CC4)c(Cl)c3C)c12)C(=O)O` (single isomer, unassigned) [Example 6, (2R)-2-{[(5Sa)-5-{3-chloro-2-methyl-4-[2-(4-methylpiperazin-1-yl)ethoxy]phenyl}-6-(4-fluorophenyl)thieno[2,3-d]pyrimidin-4-yl]oxy}-3-{2-[(1S or R)-1-(1-pentyl-1H-pyrazol-5-yl)ethoxy]phenyl}propanoic acid]: the figures for the IC50 (on Mcl-1 protein (setting [2]); in experiment [1] (setting [5])) were 4.9e-09 M and 0.332 µM, respectively.
Consider `Cc1c(-c2c(-c3ccc(F)o3)sc3ncnc(OC(Cc4ccccc4OCc4ccc(F)cn4)C(=O)O)c23)ccc(OCCN2CCN(C)CC2)c1Cl` [Example 163, (2R)-2-{[(5Sa)-5-{3-chloro-2-methyl-4-[2-(4-methylpiperazin-1-yl)ethoxy]phenyl}-6-(5-fluorofuran-2-yl)thieno[2,3-d]pyrimidin-4-yl]oxy}-3-{2-[(5-fluoropyridin-2-yl)methoxy]phenyl}propanoic acid], for which the half-inhibitory concentration (IC50) stood at 1.2e-08 M at Mcl-1 protein (setting [2]) and 0.047 µM in experiment [1] (setting [3]).
Taken in the same sequence, the figures for `Cc1c(-c2c(-c3ccc(Cl)o3)sc3ncnc(OC(Cc4ccccc4OCc4cncnc4)C(=O)O)c23)ccc(OCCN2CCN(C)CC2)c1Cl` [Example 375, (2R)-2-{[6-(5-chlorofuran-2-yl)-(5Sa)-5-{3-chloro-2-methyl-4-[2-(4-methylpiperazin-1-yl)ethoxy]phenyl}thieno[2,3-d]pyrimidin-4-yl]oxy}-3-[2-(pyrimidin-5-ylmethoxy)phenyl]propanoic acid] were 5.6e-09 M and 0.081 µM.
Taken in the same sequence, the figures for `Cc1c(-c2c(-c3ccc(F)cc3)sc3ncnc(OC(Cc4ccccc4OCc4ccnc(CCN(C)C)n4)C(=O)O)c23)ccc(OCCN2CCN(C)CC2)c1Cl` [Example 43, (2R)-2-{[(5Sa)-5-{3-chloro-2-methyl-4-[2-(4-methylpiperazin-1-yl)ethoxy]phenyl}-6-(4-fluorophenyl)thieno[2,3-d]pyrimidin-4-yl]oxy}-3-[2-({2-[2-(dimethylamino)ethyl]pyrimidin-4-yl}methoxy)phenyl]propanoic acid] were 9.8e-09 M and 0.465 µM.
As to `CCCn1nccc1COc1ccccc1CC(Oc1ncnc2sc(-c3ccc(F)c(OC)c3)c(-c3ccc(OCCN4CCN(C)CC4)c(Cl)c3C)c12)C(=O)O` [Example 385, (2R)-2-{[(5Sa)-5-{3-chloro-2-methyl-4-[2-(4-methylpiperazin-1-yl)ethoxy]phenyl}-6-(4-fluoro-3-methoxyphenyl)thieno[2,3-d]pyrimidin-4-yl]oxy}-3-{2-[(1-propyl-1H-pyrazol-5-yl)methoxy]phenyl}propanoic acid], the half-maximal inhibitory concentration (IC50) was 3.5e-09 M on Mcl-1 protein (setting [2]) and 0.048 µM in experiment [1] (setting [3]).
On to `Cc1c(-c2c(-c3ccco3)sc3ncnc(OC(Cc4ccccc4OC(F)F)C(=O)O)c23)ccc(OCCN2CCN(C)CC2)c1Cl` [Example 338, (2R)-2-{[(5Sa)-5-{3-chloro-2-methyl-4-[2-(4-methylpiperazin-1-yl)ethoxy]phenyl}-6-(furan-2-yl)thieno[2,3-d]pyrimidin-4-yl]oxy}-3-[2-(difluoromethoxy)phenyl]propanoic acid], for which the IC50 turned out to be 3e-08 M on Mcl-1 protein (setting [2]) and 1.04 µM in experiment [1] (setting [3]).
`Cc1c(-c2c(-c3ccc(F)cc3)sc3ncnc(OC(Cc4ccccc4OCc4ccnn4CC4CC4)C(=O)O)c23)ccc(OCCN2CCN(C)CC2)c1Cl` [Example 78, (2R)-2-{[(5Sa)-5-{3-chloro-2-methyl-4-[2-(4-methylpiperazin-1-yl)ethoxy]phenyl}-6-(4-fluorophenyl)thieno[2,3-d]pyrimidin-4-yl]oxy}-3-(2-{[1-(cyclopropylmethyl)-1H-pyrazol-5-yl]methoxy}phenyl)propanoic acid]: the half-inhibitory concentration (IC50) amounted to 6.6e-09 M at Mcl-1 protein (setting [2]) and 0.033 µM in experiment [1] (setting [3]).
Taken in the same sequence, the figures for `COc1ccccc1CC(Oc1ncnc2sc(-c3ccco3)c(-c3ccc(OCCN4CCN(CC(F)F)CC4)c(Cl)c3C)c12)C(=O)O` [Example 328, (2R)-2-{[(5Sa)-5-(3-chloro-4-{2-[4-(2,2-difluoroethyl)piperazin-1-yl]ethoxy}-2-methylphenyl)-6-(furan-2-yl)thieno[2,3-d]pyrimidin-4-yl]oxy}-3-(2-methoxyphenyl)propanoic acid] were 5e-09 M and 3.03 µM.
Take `COc1ccccc1CC(Oc1ncnc2sc(-c3ccco3)c(-c3ccc(OC4CCN(C)CC4)c(Cl)c3C)c12)C(=O)O` [Example 304, (2R)-2-{[(5Sa)-5-{3-chloro-2-methyl-4-[(1-methylpiperidin-4-yl)oxy]phenyl}-6-(furan-2-yl)thieno[2,3-d]pyrimidin-4-yl]oxy}-3-(2-methoxyphenyl)propanoic acid]: the values for the half-inhibitory concentration (IC50) (on Mcl-1 protein (setting [2]); in experiment [1] (setting [3])) were 1.1e-08 M and 1.7 µM, respectively.
The matching figures for `CCCCNC(=O)COc1ccccc1CC(Oc1ncnc2sc(-c3ccco3)c(-c3ccc(OCCN4CCN(C)CC4)c(Cl)c3C)c12)C(=O)O` [Example 220, (2R)-3-{2-[2-(butylamino)-2-oxoethoxy]phenyl}-2-{[(5Sa)-5-{3-chloro-2-methyl-4-[2-(4-methylpiperazin-1-yl)ethoxy]phenyl}-6-(furan-2-yl)thieno[2,3-d]pyrimidin-4-yl]oxy}propanoic acid]: 9e-09 M and 0.277 µM.
With `Cc1ccc(-c2sc3ncnc(OC(Cc4ccccc4)C(=O)O)c3c2-c2ccc(OCCN3CCN(C)CC3)c(Cl)c2C)o1` [Example 499, (2R)-2-{[(5Sa)-5-{3-chloro-2-methyl-4-[2-(4-methylpiperazin-1-yl)ethoxy]phenyl}-6-(5-methylfuran-2-yl)thieno[2,3-d]pyrimidin-4-yl]oxy}-3-phenylpropanoic acid], the values for the IC50 (at Mcl-1 protein (setting [4]); in experiment [1] (setting [3])) were 1e-07 M and 1.5 µM, respectively.
Consider `COc1ccccc1-c1nccc(COc2ccccc2CC(Oc2ncnc3sc(C#CCOc4ccccc4)c(-c4ccc(OCCN5CCN(C)CC5)c(Cl)c4C)c23)C(=O)O)n1` [Example 782, (2R)-2-{[(5Sa)-5-{3-chloro-2-methyl-4-[2-(4-methylpiperazin-1-yl)ethoxy]phenyl}-6-(3-phenoxyprop-1-yn-1-yl)thieno[2,3-d]pyrimidin-4-yl]oxy}-3-(2-{[2-(2-methoxyphenyl)pyrimidin-4-yl]methoxy}phenyl)propanoic acid], for which the concentration for half-maximal inhibition (IC50) came to 1.68e-09 M on Mcl-1 protein (setting [4]) and 0.057 µM in experiment [1] (setting [3]).
Turning to `Cc1c(-c2c(-c3ccco3)sc3ncnc(OC(Cc4ccccc4OCC4CC4)C(=O)O)c23)ccc(OCCN2CCN(C)CC2)c1Cl` [Example 229, (2R)-2-{[(5Sa)-5-{3-chloro-2-methyl-4-[2-(4-methylpiperazin-1-yl)ethoxy]phenyl}-6-(furan-2-yl)thieno[2,3-d]pyrimidin-4-yl]oxy}-3-[2-(cyclopropylmethoxy)phenyl]propanoic acid], the results for the IC50 (at Mcl-1 protein (setting [2]); in experiment [1] (setting [3])) were 4.5e-09 M and 0.134 µM, respectively.
